Laboratory results reported in patent US20220389007A1, “INHIBITORS OF HUMAN IMMUNODEFICIENCY VIRUS REPLICATION” (VIIV HEALTHCARE UK (No. 5) LIMITED, priority 2019, published 2022).

Key:
recombinant NL4-3 virus = assay: HIV cell culture assay (antiviral activity, luciferase readout); type: cell-based; details: Human immunodeficiency virus 1, NL43, MT2, MT-2 cells infected for 4-5 days with recombinant NL4-3 virus carrying Renilla luciferase
Experimental: HIV cell culture assay—MT-2 cells, 293T cells and the proviral DNA clone of NL4-3 virus were obtained from the NIH AIDS Research and Reference Reagent Program. MT-2 cells were propagated in RPMI 1640 media supplemented with 10% heat inactivated fetal bovine serum (FBS), […]. The 293T cells were propagated in DMEM media supplemented with 10% heat inactivated FBS, […]. A recombinant NL4-3 proviral clone, in which a section of the nef gene was replaced with the Renilla luciferase gene, was used to make the reference virus used in these studies. The recombinant virus was prepared through transfection of the recombinant NL4-3 proviral clone into 293T cells using Transit-293 Transfection Reagent from Mirus Bio LLC (Madison, WI). Supernatent was harvested after 2-3 days and the amount of virus present was titered in MT-2 cells using luciferase enzyme activity as a marker by measuring luciferase enzyme activity. Luciferase was quantitated using the EnduRen Live Cell Substrate from Promega (Madison, Wis.). Antiviral activities of compounds toward the recombinant virus were quantified by measuring luciferase activity in MT-2 cells infected for 4-5 days with the recombinant virus in the presence of serial dilutions of the compound.
The 50% effective concentration (EC50) was calculated by using the exponential form of the median effect equation where (Fa)=1/[1+(ED50/drug conc.)m] (Johnson VA, Byington RT. Infectivity Assay. In Techniques in HIV Research. ed. Aldovini A, Walker BD. 71-76. New York: Stockton Press. 1990). The 50% inhibitory concentration (EC50) was calculated by using the exponential form of the median effect equation where percent inhibition=1/[1+(EC50/drug concentration)m], where m is a parameter that reflects the slope of the concentration-response curve.

[1] = Compound cytotoxicity, XTT-based colorimetric assay; type: cell-based; details: human; uninfected MT2 cells, day 4, XTT assay
Experimental: Compound cytotoxicity and the corresponding CC50 values were determined using the same protocol as described in the antiviral assay except that uninfected cells were used. Cytotoxicity was assessed on day 4 in uninfected MT2 cells by using a XTT (2,3-bis[2-Methoxy-4-nitro-5-sulfophenyl]-2H-tetrazolium-5-carboxyanilide inner salt)-based colorimetric assay (Sigma-Aldrich, St Louis, Mo.).

Row | SMILES | EC50 (recombinant NL4-3 virus) [nM] | CC50 at 4 day [1] [nM]
1 | Cn1nc(NS(C)(=O)=O)c2c(Cl)ccc(-n3c([C@H](Cc4cc(F)cc(F)c4)NC(=O)Cn4nc(C(F)F)c5c4C(F)(F)[C@@H]4C[C@H]54)nc4nc(-c5ccn(CCCF)n5)ccc4c3=O)c21 (atropisomer, axis not shown; (P)) [Example 87, N-((S)-1-((3P)-3-(4-chloro-1-methyl-3-(methylsulfonamido)-1H-indazol-7-yl)-7-(1-(3-fluoropropyl)-1H-pyrazol-3-yl)-4-oxo-3,4-dihydropyrido[2,3-d]pyrimidin-2-yl)-2-(3,5-difluorophenyl)ethyl)-2-((3bS,4aR)-3-(difluoromethyl)-5,5-difluoro-3b,4,4a,5-tetrahydro-1H-cyclopropa[3,4]cyclopenta[1,2-c]pyrazol-1-yl)acetamide] | 0.036 | > 100
2 | Cn1nc(NS(C)(=O)=O)c2c(Cl)ccc(-n3c([C@H](Cc4cc(F)cc(F)c4)NC(=O)Cn4nc(C(F)F)c5c4C(F)(F)[C@@H]4C[C@H]54)nc4nc(-c5nccnc5Cl)ccc4c3=O)c21 (atropisomer, axis not shown; (P)) [Example 61, N-((S)-1-((3P)-3-(4-chloro-1-methyl-3-(methylsulfonamido)-1H-indazol-7-yl)-7-(3-chloropyrazin-2-yl)-4-oxo-3,4-dihydropyrido[2,3-d]pyrimidin-2-yl)-2-(3,5-difluorophenyl)ethyl)-2-((3bS,4aR)-3-(difluoromethyl)-5,5-difluoro-3b,4,4a,5-tetrahydro-1H-cyclopropa[3,4]cyclopenta[1,2-c]pyrazol-1-yl)acetamide] | 0.025 | > 100
3 | Cn1nc(NS(C)(=O)=O)c2c(Cl)ccc(-n3c([C@H](Cc4cc(F)cc(F)c4)NC(=O)Cn4nc(C(F)F)c5c4C(F)(F)[C@@H]4C[C@H]54)nc4nc(-c5cccc(C(C)(F)F)n5)ccc4c3=O)c21 (atropisomer, axis not shown; (P)) [Example 12, N-((S)-1-((3P)-3-(4-chloro-1-methyl-3-(methylsulfonamido)-1H-indazol-7-yl)-7-(6-(1,1-difluoroethyl)pyridin-2-yl)-4-oxo-3,4-dihydropyrido[2,3-d]pyrimidin-2-yl)-2-(3,5-difluorophenyl)ethyl)-2-((3bS,4aR)-3-(difluoromethyl)-5,5-difluoro-3b,4,4a,5-tetrahydro-1H-cyclopropa[3,4]cyclopenta[1,2-c]pyrazol-1-yl)acetamide] | 0.06 | > 100
4 | Cn1nc(NS(C)(=O)=O)c2c(Cl)ccc(-n3c([C@H](Cc4cc(F)cc(F)c4)NC(=O)Cn4nc(C(F)F)c5c4C(F)(F)[C@@H]4C[C@H]54)nc4nc(-c5ccc6ocnc6c5)ccc4c3=O)c21 (atropisomer, axis not shown; (P)) [Example 81, N-((S)-1-(7-(benzo[d]oxazol-5-yl)-(3P)-3-(4-chloro-1-methyl-3-(methylsulfonamido)-1H-indazol-7-yl)-4-oxo-3,4-dihydropyrido[2,3-d]pyrimidin-2-yl)-2-(3,5-difluorophenyl)ethyl)-2-((3bS,4aR)-3-(difluoromethyl)-5,5-difluoro-3b,4,4a,5-tetrahydro-1H-cyclopropa[3,4]cyclopenta[1,2-c]pyrazol-1-yl)acetamide] | 0.082 | > 100
5 | Cc1cc(-c2ccc3c(=O)n(-c4ccc(Cl)c5c(NS(C)(=O)=O)nn(C)c45)c([C@H](Cc4cc(F)cc(F)c4)NC(=O)Cn4nc(C(F)F)c5c4C(F)(F)[C@@H]4C[C@H]54)nc3n2)n(CC(C)(F)F)n1 (single isomer, unassigned) [Example 97] | 12 | > 100
6 | Cn1nc(NS(C)(=O)=O)c2c(Cl)ccc(-n3c([C@H](Cc4cc(F)cc(F)c4)NC(=O)Cn4nc(C(F)F)c5c4C(F)(F)[C@@H]4C[C@H]54)nc4nc(-c5ccc(OC(F)F)cc5)ccc4c3=O)c21 (atropisomer, axis not shown; (P)) [Example 27, N-((S)-1-((3P)-3-(4-chloro-1-methyl-3-(methylsulfonamido)-1H-indazol-7-yl)-7-(4-(difluoromethoxy)phenyl)-4-oxo-3,4-dihydropyrido[2,3-d]pyrimidin-2-yl)-2-(3,5-difluorophenyl)ethyl)-2-((3bS,4aR)-3-(difluoromethyl)-5,5-difluoro-3b,4,4a,5-tetrahydro-1H-cyclopropa[3,4]cyclopenta[1,2-c]pyrazol-1-yl)acetamide] | 0.34 | > 100
7 | Cn1nc(NS(C)(=O)=O)c2c(Cl)ccc(-n3c([C@H](Cc4cc(F)cc(F)c4)NC(=O)Cn4nc(C(F)F)c5c4C(F)(F)[C@@H]4C[C@H]54)nc4nc(-c5nccc(C(F)(F)F)n5)ccc4c3=O)c21 (atropisomer, axis not shown; (P)) [Example 5, N-((S)-1-((3P)-3-(4-chloro-1-methyl-3-(methylsulfonamido)-1H-indazol-7-yl)-4-oxo-7-(4-(trifluoromethyl)pyrimidin-2-yl)-3,4-dihydropyrido[2,3-d]pyrimidin-2-yl)-2-(3,5-difluorophenyl)ethyl)-2-((3bS,4aR)-3-(difluoromethyl)-5,5-difluoro-3b,4,4a,5-tetrahydro-1H-cyclopropa[3,4]cyclopenta[1,2-c]pyrazol-1-yl)acetamide] | 0.021 | > 100
8 | Cn1nc(NS(C)(=O)=O)c2c(Cl)ccc(-n3c([C@H](Cc4cc(F)cc(F)c4)NC(=O)Cn4nc(C(F)F)c5c4C(F)(F)[C@@H]4C[C@H]54)nc4nc(-c5cc(C(F)F)ccn5)ccc4c3=O)c21 (atropisomer, axis not shown; (P)) [Example 39, N-((S)-1-((3P)-3-(4-chloro-1-methyl-3-(methylsulfonamido)-1H-indazol-7-yl)-7-(4-(difluoromethyl)pyridin-2-yl)-4-oxo-3,4-dihydropyrido[2,3-d]pyrimidin-2-yl)-2-(3,5-difluorophenyl)ethyl)-2-((3bS,4aR)-3-(difluoromethyl)-5,5-difluoro-3b,4,4a,5-tetrahydro-1H-cyclopropa[3,4]cyclopenta[1,2-c]pyrazol-1-yl)acetamide] | 0.046 | > 100
9 | Cn1nc(C(F)(F)F)cc1-c1ccc2c(=O)n(-c3ccc(Cl)c4c(NS(C)(=O)=O)nn(C)c34)c([C@H](Cc3cc(F)cc(F)c3)NC(=O)Cn3nc(C(F)F)c4c3C(F)(F)[C@@H]3C[C@H]43)nc2n1 (atropisomer, axis not shown; (P)) [Example 83, N-((S)-1-((3P)-3-(4-chloro-1-methyl-3-(methylsulfonamido)-1H-indazol-7-yl)-7-(1-methyl-3-(trifluoromethyl)-1H-pyrazol-5-yl)-4-oxo-3,4-dihydropyrido[2,3-d]pyrimidin-2-yl)-2-(3,5-difluorophenyl)ethyl)-2-((3bS,4aR)-3-(difluoromethyl)-5,5-difluoro-3b,4,4a,5-tetrahydro-1H-cyclopropa[3,4]cyclopenta[1,2-c]pyrazol-1-yl)acetamide] | 0.07 | > 100
10 | Cc1nccnc1-c1ccc2c(=O)n(-c3ccc(Cl)c4c(NS(C)(=O)=O)nn(C)c34)c([C@H](Cc3cc(F)cc(F)c3)NC(=O)Cn3nc(C(F)F)c4c3C(F)(F)[C@@H]3C[C@H]43)nc2n1 (atropisomer, axis not shown; (P)) [Example 7, N-((S)-1-((3P)-3-(4-chloro-1-methyl-3-(methylsulfonamido)-1H-indazol-7-yl)-7-(3-methylpyrazin-2-yl)-4-oxo-3,4-dihydropyrido[2,3-d]pyrimidin-2-yl)-2-(3,5-difluorophenyl)ethyl)-2-((3bS,4aR)-3-(difluoromethyl)-5,5-difluoro-3b,4,4a,5-tetrahydro-1H-cyclopropa[3,4]cyclopenta[1,2-c]pyrazol-1-yl)acetamide] | 0.02 | > 100
11 | Cn1nc(NS(C)(=O)=O)c2c(Cl)ccc(-n3c([C@H](Cc4cc(F)cc(F)c4)NC(=O)Cn4nc(C(F)F)c5c4C(F)(F)[C@@H]4C[C@H]54)nc4ncc(-c5cccc(C(F)(F)F)n5)cc4c3=O)c21 (atropisomer, axis not shown; (P)) [Example 1, N-((S)-1-((3P)-3-(4-chloro-1-methyl-3-(methylsulfonamido)-1H-indazol-7-yl)-4-oxo-6-(6-(trifluoromethyl)pyridin-2-yl)-3,4-dihydropyrido[2,3-d]pyrimidin-2-yl)-2-(3,5-difluorophenyl)ethyl)-2-((3bS,4aR)-3-(difluoromethyl)-5,5-difluoro-3b,4,4a,5-tetrahydro-1H-cyclopropa[3,4]cyclopenta[1,2-c]pyrazol-1-yl)acetamide] | 0.055 | > 100
